Test results from ChEMBL document CHEMBL5108032, “Innovation Experiences from Africa-Led Drug Discovery at the Holistic Drug Discovery and Development (H3D) Centre” (ACS Med Chem Lett, 2022).
Converted amounts (≈) assume the structure as drawn.

Test system: Mycobacterium tuberculosis
Assay: Antimycobacterial activity against Mycobacterium tuberculosis H37Rv assessed as inhibition of visible growth incubated for 7 days
Type: functional
Settings: 168 h, time 7 day

Cc1nnc(-c2noc3c(F)c4c(cc23)CC2(C(=O)NC(=O)NC2=O)[C@H]2[C@H](C)O[C@H](C)CN42)o1
MIC: 1.7 µM (≈ 0.8 µg/mL)
